In patent publication US10506809B2, “Herbicidal combination comprising saflufenacil and glufosinate” (BASF SE, priority 2015, dated 2019):
Like-named read-outs stand apart in the source and are kept apart here.

Experiments:
Type in all cases: in vivo
Abutilon theophrasti = assay: Greenhouse post-emergence herbicidal activity on ABUTH (velvetleaf)
Source text: (§1) The test plants were first grown to a height of 3 to 20 cm, depending on the plant habit, and only then treated (post-emergence treatment). Here, the herbicidal combinations were suspended, emulsified or dissolved in water as distribution medium and afterwards applied by spraying, using finely distributing nozzles.
(§2) The herbicides A, B and C were used as commercially available formulations and introduced to the spray liquor with the amount of solvent system used for applying the active compound. In the examples, the solvent used was water.
(§3) The test period extended over 20 days. During this time, the plants were tended, and their response to the treatments with active compounds was evaluated.
(§4) The evaluation for the damage caused by the chemical compositions was carried out using a scale from 0 to 100%, compared to the untreated control plants. Here, 0 means no damage and 100 means complete destruction of the plants.
(§5) The plants used in the greenhouse experiments belonged to the following species:
(§6) The value E, which is to be expected if the activity of the individual compounds is just additive, was calculated using the method of S. R. Colby (1967) “Calculating synergistic and antagonistic responses of herbicide combinations”, Weeds 15, p. 22 ff. For two component mixtures the value E was calculated by the following formula E=X+Y−(X·Y/100) where • X=effect in percent using a mixture of herbicides A and B at application rates a and b, respectively; • Y=effect in percent using herbicide C at an application rate c; • E=expected effect (in %) of A+B+C at application rates a+b+c.
(§7) If the value observed in this manner is higher than the value E calculated according to Colby, a synergistic effect is present.
(§8) Tables 1 to 21 relate to the herbicidal activities of the binary mixture of herbicides A and B, of herbicide C individually and of their combinations in post-emergence application assessed 20 days after treatment (20 DAT).

Setaria viridis = assay: Greenhouse post-emergence herbicidal activity on SETVI (green foxtail)
Source text: as §1, §2, §3, §4, §5, §6, §7, §8

Amaranthus retroflexus = assay: Greenhouse post-emergence herbicidal activity on AMARE (pig weed)
Source text: as §1, §2, §3, §4, §5, §6, §7, §8

Brachiaria platyphylla = assay: Greenhouse post-emergence herbicidal activity on BRAPP (broadleaf signalgrass)
Source text: as §1, §2
The test period extended over 20 days. During this time, the plants were tended, and their response to the treatments with active compounds was evaluated. […]
The value E, which is to be expected if the activity of the individual compounds is just additive, was calculated using the method of S. R. Colby (1967) “Calculating synergistic and antagonistic responses of herbicide combinations”, Weeds 15, p. […] For two component mixtures the value E was calculated by the following formula E=X+Y−(X·Y/100) where • X=effect in percent using a mixture of herbicides A and B at application rates a and b, respectively; • Y=effect in percent using herbicide C at an application rate c; • E=expected effect (in %) of A+B+C at application rates a+b+c.
If the value observed in this manner is higher than the value E calculated according to Colby, a synergistic effect is present. […]

Avena fatua = assay: Greenhouse post-emergence herbicidal activity on AVEFA (common wild oat)
Source text: as §1, §2, §3, §4, §5, §6, §7, §8

Solanum nigrum = assay: Greenhouse post-emergence herbicidal activity on SOLNI (black nightshade)
Source text: as §1, §2, §3, §4, §5, §6, §7, §8

Digitaria sanguinalis = assay: Greenhouse post-emergence herbicidal activity on DIGSA (large crabgrass)
Source text: as §1, §2, §3, §4, §5, §6, §7, §8

Echinochloa crus-galli = assay: Greenhouse post-emergence herbicidal activity on ECHCG (barnyard grass)
Source text: as §1, §2, §3, §4, §5, §6, §7, §8

Brachiaria decumbens = assay: Greenhouse post-emergence herbicidal activity on BRADC (Surinam grass)
Source text: as §1, §2, §3, §4, §5, §6, §7, §8

[1] = solo C S-metolachlor 150.0 g ai/ha
[2] = Abutilon theophrasti, 480 h, ABUTH, solo C 20.0 g ai/ha, 20 DAT, read-out: % activity 20 DAT
[3] = solo C 2,4-D LV ester 6.25 g ai/ha

C#CCN1C(=O)COc2cc(F)c(N3C(=O)C4=C(CCCC4)C3=O)cc21 [flumioxazin, Flumioxazin]
inhibition at 0.125 g/ha (Abutilon theophrasti; Abutilon theophrasti, 480 h, solo C flumioxazin 0.125 g ai/ha, ABUTH, read-out: % activity 20 DAT): 80% | inhibition at […] (Setaria viridis; Setaria viridis, 480 h, solo C flumioxazin 0.25 g ai/ha, SETVI, read-out: % activity 20 DAT): 60%

CS(=O)(=O)c1cc(C(F)(F)F)ccc1C(=O)c1cnoc1C1CC1 [isoxaflutole, Isoxaflutole]
inhibition at 0.5 g/ha (Amaranthus retroflexus; Amaranthus retroflexus, 480 h, solo C isoxaflutole 0.5 g ai/ha, read-out: % activity 20 DAT): 55% | inhibition at 1 g/ha (Brachiaria platyphylla; Urochloa platyphylla, 480 h, solo C isoxaflutole 1.0 g ai/ha, read-out: % activity 20 DAT): 25%

CS(=O)(=O)c1ccc(C(=O)C2C(=O)CCCC2=O)c(Cl)c1COCC(F)(F)F [tembotrione, Tembotrione]
inhibition at 0.5 g/ha (Amaranthus retroflexus; Amaranthus retroflexus, 480 h, solo C tembotrione 0.5 g ai/ha, read-out: % activity 20 DAT): 80% | inhibition at 1 g/ha (Abutilon theophrasti; Abutilon theophrasti, 480 h, solo C tembotrione 1.0 g ai/ha, ABUTH, read-out: % activity 20 DAT): 10% | inhibition at 1 g/ha (Setaria viridis; Setaria viridis, 480 h, solo C tembotrione 1.0 g ai/ha, SETVI, read-out: % activity 20 DAT): 0% | inhibition at 1 g/ha (Avena fatua; Avena fatua, 480 h, solo C tembotrione 1.0 g ai/ha, read-out: % activity 20 DAT): 10%

CCOc1nc(F)cc2nc(S(=O)(=O)Nc3c(Cl)cccc3Cl)nn12 [diclosulam, Diclosulam]
% activity 20 DAT (Setaria viridis; solo C diclosulam 0.5 g ai/ha, SETVI): 35% | % activity 20 DAT (Solanum nigrum; solo C diclosulam 0.25 g ai/ha): 25%

Cc1c(C(=O)c2cnn(C)c2O)ccc(S(C)(=O)=O)c1C1=NOCC1 [topramezone, Topramezone]
% activity 20 DAT (Abutilon theophrasti; ABUTH, solo C 0.25 g ai/ha, 20 DAT): 0% | % activity 20 DAT (Avena fatua; solo C 0.25 g ai/ha): 10% | % activity 20 DAT (Digitaria sanguinalis; solo C 0.25 g ai/ha, 20 DAT): 10% | % activity 20 DAT (Echinochloa crus-galli; solo C 0.25 g ai/ha): 20%

Cc1nn(C)c(O)c1C(=O)c1ccc(C(F)(F)F)cc1S(C)(=O)=O [pyrasulfotole, Pyrasulfotole]
% activity 20 DAT (Digitaria sanguinalis; solo C 5.0 g ai/ha, 20 DAT): 35% | % activity 20 DAT (Brachiaria decumbens; solo C 5.0 g ai/ha, 20 DAT): 0% | % activity 20 DAT (Echinochloa crus-galli; solo C 2.5 g ai/ha): 80%

CCc1cccc(C)c1N(C(=O)CCl)[C@@H](C)COC [S-metolachlor, S-Metolachlor]
% activity 20 DAT (Abutilon theophrasti; solo C S-metolachlor 150.0 g ai/ha, ABUTH): 10% | % activity 20 DAT (Setaria viridis; solo C S-metolachlor 300.0 g ai/ha, SETVI): 60% | % activity 20 DAT (Digitaria sanguinalis; [1]): 0% | % activity 20 DAT (Brachiaria decumbens; [1]): 0%

CCNc1nc(Cl)nc(NC(C)C)n1 [atrazin, Atrazin]
inhibition at 6.25 g/ha (Solanum nigrum; Solanum nigrum, 480 h, solo C atrazin 6.25 g ai/ha, read-out: % activity 20 DAT): 35%

COc1c(Cl)ccc(Cl)c1C(=O)O [dicamba, Dicamba]
inhibition at 17.5 g/ha (Abutilon theophrasti; Abutilon theophrasti, 480 h, solo C dicamba 17.5 g ai/ha, ABUTH, read-out: % activity 20 DAT): 70% | inhibition at 8.75 g/ha (Setaria viridis; Setaria viridis, 480 h, read-out: % activity 20 DAT): 15%

Cc1ccc(S(=O)(=O)Oc2c(C(=O)c3ccc(Cl)cc3Cl)c(C)nn2C)cc1 [pyrazolynate, Pyrazolynate]
pest or weed control at 20 g/ha (Abutilon theophrasti; [2]): 25% | % activity 20 DAT (Digitaria sanguinalis; solo C 10.0 g ai/ha, 20 DAT): 0% | % activity 20 DAT (Brachiaria decumbens; solo C 10.0 g ai/ha, 20 DAT): 0%

CCC(CC)Nc1c([N+](=O)[O-])cc(C)c(C)c1[N+](=O)[O-] [pendimethalin, Pendimethalin]
inhibition at 75 g/ha (Amaranthus retroflexus; Amaranthus retroflexus, 480 h, solo C pendimethalin 75.0 g ai/ha, read-out: % activity 20 DAT): 55% | inhibition at 150 g/ha (Setaria viridis; Setaria viridis, 480 h, solo C pendimethalin 150.0 g ai/ha, SETVI, read-out: % activity 20 DAT): 25%

CCOCN(C(=O)CCl)c1c(C)cccc1CC [acetochlor, Acetochlor]
inhibition at 12.5 g/ha (Abutilon theophrasti; Abutilon theophrasti, 480 h, solo C acetochlor 12.5 g ai/ha, ABUTH, read-out: % activity 20 DAT): 10%

Nc1c(Cl)c(F)nc(OCC(=O)O)c1Cl [fluroxypyr, Fluroxypyr]
pest or weed control at 20 g/ha (Abutilon theophrasti; [2]): 50% | % activity 20 DAT (Avena fatua; solo C 10.0 g ai/ha): 0%

CS(=O)(=O)c1ccc(C(=O)C2C(=O)CCCC2=O)c(Cl)c1 [sulcotrione, Sulcotrione]
pest or weed control at 20 g/ha (Abutilon theophrasti; Abutilon theophrasti, 480 h, read-out: % activity 20 DAT): 85% | % activity 20 DAT (Brachiaria decumbens; solo C 5.0 g ai/ha, 20 DAT): 0% | % activity 20 DAT (Echinochloa crus-galli; solo C 2.5 g ai/ha): 30%

CCCCC(CC)COC(=O)COc1ccc(Cl)cc1Cl (stereo not drawn) [2,4-D LV ester, 2,4-D]
% activity 20 DAT (Amaranthus retroflexus; [3]): 45% | % activity 20 DAT (Brachiaria platyphylla; [3]): 10%

CS(=O)(=O)c1ccc(C(=O)C2C(=O)CCCC2=O)c([N+](=O)[O-])c1 [mesotrione, Mesotrione]
inhibition at […] (Setaria viridis; Setaria viridis, 480 h, solo C mesotrione 2.5 g ai/ha, SETVI, read-out: % activity 20 DAT): 25% | inhibition at 1.25 g/ha (Solanum nigrum; Solanum nigrum, 480 h, solo C mesotrione 1.25 g ai/ha, read-out: % activity 20 DAT): 85%

CS(=O)(=O)c1ccc(C(=O)C2=C(Sc3ccccc3)C3CCC(C3)C2=O)c(Cl)c1 (stereo not drawn) [benzobicyclon, Benzobicyclon]
% activity 20 DAT (Amaranthus retroflexus; solo C 20.0 g ai/ha, 20 DAT): 60% | % activity 20 DAT (Abutilon theophrasti; ABUTH, solo C 20.0 g ai/ha, 20 DAT): 90% | % activity 20 DAT (Avena fatua; solo C 10.0 g ai/ha): 10% | % activity 20 DAT (Digitaria sanguinalis; solo C 20.0 g ai/ha, 20 DAT): 60%

COC[C@H](C)N(C(=O)CCl)c1c(C)csc1C [dimethenamid-P, Dimethenamid-P]
% activity 20 DAT (Solanum nigrum; solo C dimethenamid-P 18.75 g ai/ha): 10%

Bicyclopyrone
% activity 20 DAT (Setaria viridis; SETVI, solo C 1.0 g ai/ha, 20 DAT): 0% | % activity 20 DAT (Avena fatua; solo C 2.0 g ai/ha): 0% | % activity 20 DAT (Echinochloa crus-galli; solo C 20.0 g ai/ha): 75%

Cc1nn(-c2cc(NS(C)(=O)=O)c(Cl)cc2Cl)c(=O)n1C(F)F [salfentrazone, Sulfentrazone]
inhibition at 1.5 g/ha (Abutilon theophrasti; Abutilon theophrasti, 480 h, solo C salfentrazone 1.5 g ai/ha, ABUTH, read-out: % activity 20 DAT): 40% | inhibition at 1.5 g/ha (Setaria viridis; Setaria viridis, 480 h, solo C salfentrazone 1.5 g ai/ha, SETVI, read-out: % activity 20 DAT): 30%

O=C(O)c1c(Cl)ccc2cc(Cl)cnc12 [quinclorac, Quinclorac]
inhibition at 5 g/ha (Avena fatua; Avena fatua, 480 h, solo C quinclorac 5.0 g ai/ha, read-out: % activity 20 DAT): 0% | inhibition at 5 g/ha (Echinochloa crus-galli; Echinochloa crus-galli, 480 h, solo C quinclorac 5.0 g ai/ha, read-out: % activity 20 DAT): 0%
